Laboratory results as given in patent US20250214991A1 (Oncopia Therapeutics, Inc. d/b/a/ SK Life Science Labs, priority 2022, published 2025).

Key:
IKZF2 [1] = molecular target: T1, IKZF2 (Homo sapiens (Human), UniProt Q96SW2+Q9UKS7); test: In vitro IKZF2 HiBit Assay (HEK293T Flp-in-HiBiT cells); type: cell-based; conditions: HEK293T Flp-in-HiBiT cells, 6 hrs incubation; for DC50: read-out: IKZF2 HiBit DC50; for Dmax: HEK-293T, read-out: IKZF2 HiBit Dmax (%)
How it was run: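 Remaining tagged Helios was read as lytic HiBiT/LgBiT luminescence normalized to DMSO, yielding binned DC50 and Dmax values. Treatment ran 6 h, with compounds at 11 three-fold doses diluted from 1 mM and 0.1% final DMSO. The cells were HEK293T Flp-in with CRISPR knock-in of HiBiT at the IKZF2 N-terminus.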

IKZF2 [2] = molecular target: T1, IKZF2; test: In vitro IKZF2 FACS Assay in Jurkat cells; type: cell-based; conditions: 24 hrs; for DC50: half maximal degradation concentration; for Dmax: maximal degradation percentage
Experimental: In vitro IKZF2 FACS Assay
DC50, A: <1 nM; B: 1-10 nM; C: 10-100 nM; D: 100-1000 nM; E: >1000 nM. Dmax, A: >80%; B: 60-80%; C: 40-60%; D: 20-40%; E: <20%.

IKZF1 = IKZF1 (Homo sapiens (Human), UniProt Q13422+Q96SW2); test: In vitro IKZF1 HiBit Assay (HEK293T Flp-in-HiBiT-IKZF1 stable cell line); type: cell-based; conditions: HEK293T Flp-in-HiBiT-IKZF1 stable cell line, 6 hrs incubation; for DC50: read-out: IKZF1 HiBit DC50; for Dmax: HEK-293T, read-out: IKZF1 HiBit Dmax (%)
How it was run: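 Degradation was measured as loss of luminescence from the HiBiT-IKZF1 tag after 6 h compound treatment, with 0.1% final DMSO, in stable HEK293T Flp-in cells. Values were normalized to DMSO, giving the 50% degradation concentration and the maximal degradation range.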

CRBN/DDB1 = CRBN/DDB1 (Homo sapiens (Human), UniProt Q96SW2); test: IC50 measurements for binding to CRBN/DDB1 (HTRF); conditions: His tagged CRBN+DDB, Cy5-labeled Thalidomide probe, one hour
How it was run: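 Serially diluted compounds compete with a Cy5-labeled thalidomide tracer (60 nM) for His-tagged CRBN-DDB1 (2 nM), detected via anti-6His Tb cryptate (0.4 nM); buffer HEPES pH 7.5 with TCEP, Brij-35, NaCl, BSA. One-hour room-temperature incubation, HTRF signal read, IC50 by four-parameter curve.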

Chain of IKZF1 (Q13422 whole entry): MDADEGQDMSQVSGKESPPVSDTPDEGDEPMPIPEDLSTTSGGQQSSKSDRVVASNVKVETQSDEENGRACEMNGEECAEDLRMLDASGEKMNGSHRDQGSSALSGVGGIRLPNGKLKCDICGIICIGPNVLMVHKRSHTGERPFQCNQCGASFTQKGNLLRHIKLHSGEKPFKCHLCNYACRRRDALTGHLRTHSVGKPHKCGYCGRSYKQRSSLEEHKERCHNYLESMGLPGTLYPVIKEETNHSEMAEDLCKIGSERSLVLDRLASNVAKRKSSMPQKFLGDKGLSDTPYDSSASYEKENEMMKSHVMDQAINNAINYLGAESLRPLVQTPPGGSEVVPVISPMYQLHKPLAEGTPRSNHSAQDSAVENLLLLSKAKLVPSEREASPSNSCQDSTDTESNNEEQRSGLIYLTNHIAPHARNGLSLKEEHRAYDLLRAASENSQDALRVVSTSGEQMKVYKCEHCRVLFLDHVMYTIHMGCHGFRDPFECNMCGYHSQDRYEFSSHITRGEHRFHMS
Chain of IKZF1 (Q96SW2 whole entry): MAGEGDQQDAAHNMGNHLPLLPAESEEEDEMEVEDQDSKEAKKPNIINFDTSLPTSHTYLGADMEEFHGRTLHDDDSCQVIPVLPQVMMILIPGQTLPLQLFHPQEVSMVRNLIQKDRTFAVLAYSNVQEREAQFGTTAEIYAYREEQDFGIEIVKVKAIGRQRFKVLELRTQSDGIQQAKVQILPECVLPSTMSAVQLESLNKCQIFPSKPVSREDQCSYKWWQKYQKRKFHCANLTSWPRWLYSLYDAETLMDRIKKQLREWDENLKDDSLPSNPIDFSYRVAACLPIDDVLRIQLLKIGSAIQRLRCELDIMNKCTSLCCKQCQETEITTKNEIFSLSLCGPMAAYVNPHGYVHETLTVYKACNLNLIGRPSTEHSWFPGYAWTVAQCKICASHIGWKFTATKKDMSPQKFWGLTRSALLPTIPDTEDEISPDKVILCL
Chain of IKZF1 (Q16531 2-1140 partner): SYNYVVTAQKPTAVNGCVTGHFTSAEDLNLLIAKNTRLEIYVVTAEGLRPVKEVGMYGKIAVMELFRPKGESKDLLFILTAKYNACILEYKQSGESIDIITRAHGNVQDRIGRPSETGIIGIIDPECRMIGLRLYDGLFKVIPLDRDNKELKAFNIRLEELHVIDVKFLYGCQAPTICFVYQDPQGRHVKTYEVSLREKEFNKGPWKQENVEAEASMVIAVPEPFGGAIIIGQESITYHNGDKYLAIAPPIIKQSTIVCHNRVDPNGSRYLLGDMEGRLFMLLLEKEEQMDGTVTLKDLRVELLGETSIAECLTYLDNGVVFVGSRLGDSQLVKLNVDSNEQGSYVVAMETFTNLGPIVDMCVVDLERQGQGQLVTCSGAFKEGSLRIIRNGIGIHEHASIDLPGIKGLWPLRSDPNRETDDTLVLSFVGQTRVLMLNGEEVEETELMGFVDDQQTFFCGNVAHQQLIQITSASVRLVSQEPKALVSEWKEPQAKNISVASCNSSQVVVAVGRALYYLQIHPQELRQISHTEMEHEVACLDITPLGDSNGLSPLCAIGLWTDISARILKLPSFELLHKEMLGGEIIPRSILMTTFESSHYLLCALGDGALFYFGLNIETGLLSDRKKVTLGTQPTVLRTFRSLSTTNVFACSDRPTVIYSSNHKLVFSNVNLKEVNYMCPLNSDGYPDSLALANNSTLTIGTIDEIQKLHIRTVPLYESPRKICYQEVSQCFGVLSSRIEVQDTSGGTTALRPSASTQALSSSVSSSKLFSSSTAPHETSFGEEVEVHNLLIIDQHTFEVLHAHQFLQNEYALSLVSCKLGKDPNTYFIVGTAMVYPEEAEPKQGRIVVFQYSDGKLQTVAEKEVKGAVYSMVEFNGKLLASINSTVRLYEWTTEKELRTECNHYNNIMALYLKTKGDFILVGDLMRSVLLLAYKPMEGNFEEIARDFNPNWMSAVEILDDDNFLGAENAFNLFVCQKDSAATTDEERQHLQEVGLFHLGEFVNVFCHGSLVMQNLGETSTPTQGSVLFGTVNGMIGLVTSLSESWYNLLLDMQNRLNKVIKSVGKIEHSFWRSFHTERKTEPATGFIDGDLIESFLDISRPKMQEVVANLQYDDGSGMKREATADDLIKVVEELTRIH
Chain of CRBN/DDB1 (Q96SW2 whole entry, species assumed): as the sequence (Q96SW2 whole entry) above
Chain of CRBN/DDB1 (Q16531 whole entry partner, species assumed): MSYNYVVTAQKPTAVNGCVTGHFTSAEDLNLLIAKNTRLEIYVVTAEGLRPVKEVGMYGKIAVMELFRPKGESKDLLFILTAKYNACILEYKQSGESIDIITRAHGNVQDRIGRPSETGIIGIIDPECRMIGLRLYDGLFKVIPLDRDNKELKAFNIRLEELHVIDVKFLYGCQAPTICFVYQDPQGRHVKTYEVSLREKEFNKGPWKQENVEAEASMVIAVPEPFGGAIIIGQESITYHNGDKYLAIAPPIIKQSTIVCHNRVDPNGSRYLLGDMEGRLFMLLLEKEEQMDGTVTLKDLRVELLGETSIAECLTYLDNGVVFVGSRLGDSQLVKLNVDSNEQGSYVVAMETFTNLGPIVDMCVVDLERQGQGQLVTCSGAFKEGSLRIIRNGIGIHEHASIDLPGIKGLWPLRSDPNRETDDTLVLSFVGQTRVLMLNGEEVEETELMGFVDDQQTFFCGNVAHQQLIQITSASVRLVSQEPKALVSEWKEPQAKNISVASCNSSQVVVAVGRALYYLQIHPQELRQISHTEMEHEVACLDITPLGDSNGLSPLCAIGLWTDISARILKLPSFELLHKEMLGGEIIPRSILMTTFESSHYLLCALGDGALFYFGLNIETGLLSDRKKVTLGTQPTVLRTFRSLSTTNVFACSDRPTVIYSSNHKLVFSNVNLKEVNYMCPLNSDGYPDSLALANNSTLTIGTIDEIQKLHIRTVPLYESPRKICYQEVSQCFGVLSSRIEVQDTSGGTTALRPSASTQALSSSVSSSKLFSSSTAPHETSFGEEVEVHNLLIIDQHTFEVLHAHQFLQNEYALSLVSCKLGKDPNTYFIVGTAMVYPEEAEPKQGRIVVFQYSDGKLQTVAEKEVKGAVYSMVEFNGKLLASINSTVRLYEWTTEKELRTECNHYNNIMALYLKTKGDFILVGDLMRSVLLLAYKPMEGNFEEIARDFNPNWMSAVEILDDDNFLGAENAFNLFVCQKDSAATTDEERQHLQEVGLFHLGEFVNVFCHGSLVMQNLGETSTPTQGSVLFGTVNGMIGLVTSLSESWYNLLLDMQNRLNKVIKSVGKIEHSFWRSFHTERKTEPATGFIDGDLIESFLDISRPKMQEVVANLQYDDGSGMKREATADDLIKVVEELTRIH
T1 sequence (Q9UKS7 whole entry): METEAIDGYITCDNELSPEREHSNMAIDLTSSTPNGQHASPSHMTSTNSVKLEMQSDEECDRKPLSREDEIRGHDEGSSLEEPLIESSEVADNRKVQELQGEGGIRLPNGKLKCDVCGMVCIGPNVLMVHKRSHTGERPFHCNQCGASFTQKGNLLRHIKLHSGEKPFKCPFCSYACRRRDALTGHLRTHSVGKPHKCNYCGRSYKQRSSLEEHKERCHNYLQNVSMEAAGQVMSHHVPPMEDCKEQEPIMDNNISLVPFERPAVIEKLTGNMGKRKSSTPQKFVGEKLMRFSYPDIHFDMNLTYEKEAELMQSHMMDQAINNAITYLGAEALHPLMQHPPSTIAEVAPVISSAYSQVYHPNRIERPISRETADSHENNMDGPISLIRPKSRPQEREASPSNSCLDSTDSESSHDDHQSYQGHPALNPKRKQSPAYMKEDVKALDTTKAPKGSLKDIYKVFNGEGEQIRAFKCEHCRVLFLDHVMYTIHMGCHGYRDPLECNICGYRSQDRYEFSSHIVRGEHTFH
T1 sequence (Q96SW2 whole entry): as the sequence (Q96SW2 whole entry) above
T1 sequence (Q16531 2-1140 partner): as the sequence (Q16531 2-1140 partner) above

Row | Compound | DC50 (IKZF2 [1]) [µM] | Dmax (IKZF2 [1]) [%] | DC50 (IKZF2 [2]) [µM] | Dmax (IKZF2 [2]) [%] | DC50 (IKZF1) [µM] | Dmax (IKZF1) [%] | IC50 (CRBN/DDB1) [µM]
1 | O=C1CCC(N2Cc3cc(-c4cc(CN5CCCC5)c5nccc(OC(F)F)c5n4)ccc3C2=O)C(=O)N1 (stereo not drawn) [Example 249, 3-(5-(8-(difluoromethoxy)-4-(pyrrolidin-1-ylmethyl)-1,5-naphthyridin-2-yl)-1-oxoisoindolin-2-yl) piperidine-2,6-dione] | 0.001 to 0.01 | > 80 | 0.001 to 0.01 | > 80 | > 10 | < 20 | 
2 | Nc1[nH]nc2c(CN3CCCC3)cc(-c3ccc4c(c3F)CN(C3CCC(=O)NC3=O)C4=O)nc12 (stereo not drawn) [Example 318, 3-(5-(3-amino-7-(pyrrolidin-1-ylmethyl)-2H-pyrazolo[4,3-b]pyridin-5-yl)-4-fluoro-1-oxoisoindolin-2-yl) piperidine-2,6-dione] | 0.001 to 0.01 | > 80 | 0.001 to 0.01 | > 80 | 0.01 to 0.1 | 60 to 80 | 
3 | CO[C@H]1C[C@H](Oc2ccnc3c(CN4CCCC4)cc(-c4ccc5c(c4)CN(C4CCC(=O)NC4=O)C5=O)nc23)C1 (stereo partly drawn) [Example 280, 3-(5-(8-((1r,3r)-3-methoxycyclobutoxy)-4-(pyrrolidin-1-ylmethyl)-1,5-naphthyridin-2-yl)-1-oxoisoindolin-2-yl) piperidine-2,6-dione] | 0.01 to 0.1 | 60 to 80 | 0.01 to 0.1 | 60 to 80 | > 10 | < 20 | 
4 | CC(C)Nc1n[nH]c2c(CN3CC4COCC4C3)cc(-c3ccc4c(c3F)CN(C3CCC(=O)NC3=O)C4=O)nc12 (stereo not drawn) [Example 288, 3-(4-fluoro-5-(3-(isopropylamino)-7-((tetrahydro-1H-furo[3,4-c]pyrrol-5 (3H)-yl)methyl)-1H-pyrazolo[4,3-b]pyridin-5-yl)-1-oxoisoindolin-2-yl) piperidine-2,6-dione] | 0.001 to 0.01 | > 80 | 0.01 to 0.1 | 60 to 80 | > 10 | < 20 | 
5 | O=C1CCC(N2Cc3cc(-c4cc(CN5CCCC5)c5cnn(C6COC6)c5n4)ccc3C2=O)C(=O)N1 (stereo not drawn) [Example 203, 3-(5-(1-(oxetan-3-yl)-4-(pyrrolidin-1-ylmethyl)-1H-pyrazolo[3,4-b]pyridin-6-yl)-1-oxoisoindolin-2-yl) piperidine-2,6-dione] | 0.001 to 0.01 | > 80 | 0.001 to 0.01 | > 80 | 0.01 to 0.1 | 20 to 40 | 
6 | CC(C)Nc1n[nH]c2c(CN3CC4(CCOCC4)C3)cc(-c3ccc4c(c3F)CN(C3CCC(=O)NC3=O)C4=O)nc12 (stereo not drawn) [Example 289, 3-(5-(7-((7-oxa-2-azaspiro[3.5]nonan-2-yl)methyl)-3-(isopropylamino)-1H-pyrazolo[4,3-b]pyridin-5-yl)-4-fluoro-1-oxoisoindolin-2-yl) piperidine-2,6-dione] | 0.001 to 0.01 | > 80 | 0.001 to 0.01 | > 80 | 0.01 to 0.1 | 40 to 60 | 
7 | O=C1CCC(N2Cc3c(ccc(-c4nc5c(ccn5C5COC5)c(CN5CCCC5)c4Cl)c3F)C2=O)C(=O)N1 (stereo not drawn) [Example 270, 3-(5-(5-chloro-1-(oxetan-3-yl)-4-(pyrrolidin-1-ylmethyl)-1H-pyrrolo[2,3-b]pyridin-6-yl)-4-fluoro-1-oxoisoindolin-2-yl) piperidine-2,6-dione] | < 0.001 | > 80 | 0.001 to 0.01 | > 80 | > 10 | < 20 | 
8 | CC(C)Nc1n[nH]c2c(CN3CCC(F)CC3)cc(-c3ccc4c(c3F)CN(C3CCC(=O)NC3=O)C4=O)nc12 (stereo not drawn) [Example 282, 3-(4-fluoro-5-(7-((4-fluoropiperidin-1-yl)methyl)-3-(isopropylamino)-1H-pyrazolo[4,3-b]pyridin-5-yl)-1-oxoisoindolin-2-yl) piperidine-2,6-dione] | 0.001 to 0.01 | > 80 | 0.01 to 0.1 | > 80 | 1 to 10 | 20 to 40 | 
9 | CCNc1n[nH]c2c(CN3CCCC3)cc(-c3ccc4c(c3F)CN(C3CCC(=O)NC3=O)C4=O)nc12 (stereo not drawn) [Example 291, 3-(5-(3-(ethylamino)-7-(pyrrolidin-1-ylmethyl)-1H-pyrazolo[4,3-b]pyridin-5-yl)-4-fluoro-1-oxoisoindolin-2-yl) piperidine-2,6-dione] | < 0.001 | > 80 | < 0.001 | > 80 | 0.01 to 0.1 | 40 to 60 | 
10 | O=C1CCC(N2Cc3cc(-c4cc(CN5CCCCC56CC6)c5ccn(C6COC6)c5n4)ccc3C2=O)C(=O)N1 (stereo not drawn) [Example 264, 3-(5-(4-((4-azaspiro[2.5]octan-4-yl)methyl)-1-(oxetan-3-yl)-1H-pyrrolo[2,3-b]pyridin-6-yl)-1-oxoisoindolin-2-yl) piperidine-2,6-dione] | 0.001 to 0.01 | 60 to 80 | 0.01 to 0.1 | 40 to 60 | > 10 | < 20 | 
11 | CCn1ccc2nc(-c3ccc4c(c3)CN(C3CCC(=O)NC3=O)C4=O)cc(CN3CCC3)c21 (stereo not drawn) [Example 124, 3-(5-(7-(azetidin-1-ylmethyl)-1-ethyl-1H-pyrrolo[3,2-b]pyridin-5-yl)-1-oxoisoindolin-2-yl) piperidine-2,6-dione] | 0.001 to 0.01 | > 80 |  |  | 0.01 to 0.1 | 20 to 40 | 1 to 5
12 | Cn1ccc2c(CN3CCC4(CCCC4)CC3)cc(-c3ccc4c(c3)CN(C3CCC(=O)NC3=O)C4=O)nc21 (stereo not drawn) [Example 103, 3-(5-(4-((8-azaspiro[4.5]decan-8-yl)methyl)-1-methyl-1H-pyrrolo[2,3-b]pyridin-6-yl)-1-oxoisoindolin-2-yl) piperidine-2,6-dio] | 0.001 to 0.01 | > 80 |  |  | 0.01 to 0.1 | 20 to 40 | 0.1 to 0.5
13 | Cn1ccc2c(CN3CCC(C#N)CC3)cc(-c3ccc4c(c3)CN(C3CCC(=O)NC3=O)C4=O)nc21 (stereo not drawn) [Example 309, 1-((6-(2-(2,6-dioxopiperidin-3-yl)-1-oxoisoindolin-5-yl)-1-methyl-1H-pyrrolo[2,3-b]pyridin-4-yl)methyl) piperidine-4-carbonitrile] | 0.001 to 0.01 | > 80 |  |  | 1 to 10 | 20 to 40 | 1 to 5
14 | CN(C)C1CCN(Cc2cc(-c3ccc4c(c3)CN(C3CCC(=O)NC3=O)C4=O)nc3c2ccn3C2COC2)CC1 (stereo not drawn) [Example 190, 3-(5-(4-((4-(dimethylamino)piperidin-1-yl)methyl)-1-(oxetan-3-yl)-1H-pyrrolo[2,3-b]pyridin-6-yl)-1-oxoisoindolin-2-yl) piperidine-2,6-dione] | 0.01 to 0.1 | 40 to 60 |  |  | > 10 | < 20 | 0.1 to 0.5
15 | COC1CCN(Cc2cc(-c3ccc4c(c3)CN(C3CCC(=O)NC3=O)C4=O)nc3c2ccn3C)C1 (stereo not drawn) [Example 93, 3-(5-(4-((3-methoxypyrrolidin-1-yl)methyl)-1-methyl-1H-pyrrolo[2,3-b]pyridin-6-yl)-1-oxoisoindolin-2-yl) piperidine-2,6-dione] | < 0.001 | > 80 |  |  | 0.01 to 0.1 | 20 to 40 | 0.1 to 0.5
16 | O=C1CCC(N2Cc3cc(-c4cc(CN5CCCC5)c5ccn(Cc6ccccc6)c5n4)ccc3C2=O)C(=O)N1 (stereo not drawn) [Example 147, 3-(5-(1-benzyl-4-(pyrrolidin-1-ylmethyl)-1H-pyrrolo[2,3-b]pyridin-6-yl)-1-oxoisoindolin-2-yl) piperidine-2,6-dione] | 0.001 to 0.01 | 40 to 60 |  |  | > 10 | < 20 | 0.1 to 0.5
